Experimental data as given in patent publication US10774122B2, “ERG targeted therapy” (The Regents of the University of Michigan, priority 2017, dated 2020).
Where a SMILES comes first, the peptide text is derived from it. Where no end group is shown, it is not given here. The star is where a group is joined. Biotin = O=C1N[C@H]2[C@H](CS[C@H]2CCCCC(=O)*)N1

Tests used:
PSMA = PSMA (Homo sapiens, UniProt Q04609); details: reported in literature; cited from earlier work
wild-type ERG (wtERG) = molecular target: T1, wild-type ERG (wtERG) (Homo sapiens, UniProt P11308); assay: Pull-down of purified recombinant proteins with biotin-peptides; type: binding; details: purified recombinant protein
T1 construct: cDNAs encoding full-length ERG and GUS were cloned into pDEST10 vector; His; made in house; host or cells: SF9 insect cells (Bac-to-Bac baculovirus)
Description: (A) Pull-down experiment was performed by incubating purified recombinant proteins and biotin-peptides. (B-C) Representative sensorgrams for both wtERG and ERG_Y373A binding to EIP1. Real-time binding was measured by immobilization of biotinylated proteins to the streptavidin biosensors and subsequent interactions with varying concentrations of synthetic peptides as indicated. (D) Steady-state analysis of real-time binding data for wtERG/ERG_Y373A and synthetic peptides. (E) Electrophoretic mobility shift assay (EMSA) for ERG and ETS binding sequence (EBS).

VCaP ERG = molecular target: T2, VCaP ERG (Homo sapiens, UniProt P11308); assay: Pull-down from whole cell lysates normalized for ERG levels; type: binding
T2 construct: endogenous in cells; host or cells: VCaP cells (ATCC): cultured cells, lysates or extracts, or VCaP xenograft tumours in nude mice
Description: (§1) Approximately 1 mg of soluble VCaP cell lysate prepared in RIPA buffer (Invitrogen) was incubated with varying amounts of biotinylated peptides for 2 hours at 4° C. HaloLink agarose beads (20 μl) were added to the peptide-lysate mixture and incubated for an additional 4 hours. Beads were then pelleted by centrifugation, washed three times in PBS-T and loaded into an SDSPAGE gel followed by Western blot analysis. Total VCaP cell lysate was loaded for positive control.
It was then determined whether RI-EIP affects normal ERG function.

HUVEC ERG = molecular target: T3, HUVEC ERG (Homo sapiens, UniProt P11308); assay: as above; type: binding
T3 construct: wild-type ERG expressed in human or murine endothelial cells; endogenous in cells; host or cells: HUVEC (human umbilical vein endothelial cells)

[1] = human, in vivo; cited from earlier work
[2] = molecular target: T4, TMPRSS2:ERG gene fusion product (endogenous ERG) (Homo sapiens, UniProt P11308); assay: Biotin-peptide pull-down from VCaP cell lysates, immunoblot and mass spectrometry; type: binding; details: 53 kDa band of pull-downs, mass spectrometry
T4 construct: endogenous in cells; host or cells: VCaP cells (ATCC): cultured cells, lysates or extracts, or VCaP xenograft tumours in nude mice
Description: as §1
The samples were treated with SDS loading buffer supplied with 10 mM DTT for 5 min at 85° C. The proteins were alkylated by adding iodoacetamide to the final concentration of 15 mM. The samples were subjected to SDS-PAGE and the whole lanes were cut out and digested with trypsin in-gel for 2 hours. […]
The resulting spectrum files were transformed into MGF format by MSConvert software and interrogated by MASCOT 2.4 search engine using human UniProt database version 15 concatenated with reverse sequences for estimation of false discovery rate (FDR) and with a list of common contaminants. […] The peptide FDR was calculated as 2×(decoy_hits)/(target+decoy hits). Spectral counts for all detected proteins were assembled using an in-house written Python script. […]

ERG [3] = molecular target: T5, ERG (Homo sapiens, UniProt P11308)
T5 sequence (P11308 1-479): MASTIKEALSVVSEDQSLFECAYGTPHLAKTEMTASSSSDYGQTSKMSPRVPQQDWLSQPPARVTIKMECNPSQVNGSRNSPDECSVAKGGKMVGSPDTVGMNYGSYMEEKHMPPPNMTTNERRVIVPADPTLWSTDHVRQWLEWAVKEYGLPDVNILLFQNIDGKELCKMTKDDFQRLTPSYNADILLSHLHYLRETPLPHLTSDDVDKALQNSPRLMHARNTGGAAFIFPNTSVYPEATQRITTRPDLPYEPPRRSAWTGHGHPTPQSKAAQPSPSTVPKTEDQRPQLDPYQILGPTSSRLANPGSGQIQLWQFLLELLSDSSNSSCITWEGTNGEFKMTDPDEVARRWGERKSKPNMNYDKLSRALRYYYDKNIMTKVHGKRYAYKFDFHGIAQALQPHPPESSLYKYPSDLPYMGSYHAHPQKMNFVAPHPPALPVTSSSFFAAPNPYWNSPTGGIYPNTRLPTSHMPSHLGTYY
Description: (§2) Halo fusion proteins were expressed using the TNT® SP6 High-Yield Wheat Germ kit (Promega) following the manufacturer's protocol.

ERG_Y373A [4] = molecular target: T6, ERG_Y373A (Homo sapiens, UniProt P11308, Y373A)
Description: as §2

ERG in VCaP cells [5] = molecular target: T7, ERG in VCaP cells (Homo sapiens, UniProt P11308); assay: Immunoblot of ERG protein in treated VCaP cells; details: proteasome inhibitor co-treatment
Description: VCaP cells were seeded in 6-well plates at 0.5×10^6 cells/ml and after allowing cells to attach, cells were harvested and homogenized in NP40 lysis buffer (Sigma) containing a complete protease inhibitor cocktail (Roche). Ten micrograms of each protein extract was boiled in SDS sample buffer, size fractionated by SDS-PAGE, and transferred onto a PVDF membrane (GE Healthcare). […] Following three washes in TBS-T, the blots were incubated with horseradish peroxidase conjugated secondary antibody and the signals visualized by enhanced chemiluminescence system according to manufacturer's instructions (GE Healthcare).

ERG [6] = molecular target: T5, ERG; remark: listed apart in the source
Description: (§3) The interaction coefficients between ERG and synthetic peptides or peptidomimetics were determined by biolayer interferometry technology using the Octet Red system (ForteBio). Purified ERG and GUS proteins were biotinylated by EZLink NHS-PEG4 Biotinylation Kit (Thermo Scientific) following the manufacturer's protocol and any unincorporated biotin was removed from the reactions with Zeba 2 ml desalt columns (Thermo). Biotinylated proteins (500 μg/ml) were then incubated with super streptavidin biosensors in binding buffer (20 mM HEPES pH 7.4, 150 mM NaCl), blocked with 10 μg/ml biocytin and washed three times in binding buffer. Peptides were serially diluted in binding buffer, mixed with the protein-coupled biosensors and peptidomimetic:protein association/dissociation was monitored for 10 min at 25° C. Nonspecific binding from the signal obtained from peptidomimetic:GUS interactions was subtracted from that of peptidomimetic:ERG interactions and baseline signal drift was controlled by monitoring immobilized ERG without peptide. Octet Red analysis software was used to analyze the data.

ERG_Y373A [7] = molecular target: T6, ERG_Y373A; assay: biochemical; type: binding
Description: as §3
ERG:EBS DNA interaction = molecular target: T8, ERG:EBS DNA interaction (Homo sapiens, UniProt P11308); type: biochemical
T8 construct: endogenous in cells; host or cells: VCaP cells (ATCC): cultured cells, lysates or extracts, or VCaP xenograft tumours in nude mice
Description: To determine the inhibitory activity of the peptide against the ERG:DNA interaction, electrophoretic mobility shift assays (EMSAs) were performed. Double stranded ERG ETS binding sequence (5′ […] 3′ (SEQ ID NO:109)) was end labeled using Biotin 3′ End DNA Labeling Kit (Pierce). For each binding reaction, VCaP cell extract was incubated with 1 μg poly d (I-C), 2 μl of EMSA binding buffer (1.5% glycerol, 75 mM KCl, 0.375 mM DTT, 12.5 mM NaCl, 0.375 mM phenylmethylsulfonyl fluoride [PMSF]) and 5 μM biotin-labeled EBS in the presence or absence of the peptides as indicated for 30 min at room temperature. The reaction mixtures were loaded onto 6% TBE gels (Invitrogen) and electrophoresed at 120 V for 2 hr at 4° C. in […] Tris-Borate-EDTA (TBE). Probes were transferred to nylon membrane (Biodyne B, Pall) in a semidry blotting device at 300 mA for 30 min. The membrane was baked for 30 min at 85° C. in a dry oven. Biotinylated oligonucleotides were detected by probing with streptavidin-conjugated horseradish peroxidase and visualized by enhanced chemiluminescence (Pierce).

VCaP cells = assay: Immunofluorescence confocal microscopy of FITC-labeled peptide uptake; type: cell-based; details: FITC-labeled peptides
Description: After 2 hours incubation, cells were washed two times in PBS, and fixed for 15 min in 100% methanol. After washing an additional three times in PBS, cells were mounted using Vectashield with DAPI (Vector laboratories). Images were captured using 100× oil objective lens on an Olympus Confocal microscope at the University of Michigan microscopy imaging lab.

[8] = system: Ewing sarcoma cells containing the EWS-ERG fusion; type: cell-based
Excerpt: (A) Pull down of ERG in Ewing sarcoma cells containing a EWS-ERG fusion and reduced tumor growth in xenografts models of Ewing sarcoma. (B) Tumors containing the EWS-FLI1 fusion or osteosarcomas (A204) are not affected by treatments with peptides of the disclosure. […] Similarly, invasion potential was reduced by EIP1 and EIP2 treatment in Ewing sarcoma cells containing the EWS-ERG fusion.

[9] = system: cells containing the EWS-FLI1 fusion; assay: DNA damage in Ewing sarcoma cells; type: cell-based
ERG:AR interaction = molecular target: T9, ERG:AR interaction (Homo sapiens, UniProt P11308)
T9 sequence (P11308 1-479): T5 sequence (P11308 1-479)
Description: (§4) Halo-ERG fusion protein was expressed using in vitro transcription/translation system as described above. […] Protein mixtures were incubated with or without the peptides in PBS-T (0.1% Tween) at 4° C. overnight. Simultaneously, HaloLink beads (Promega) were blocked in 5% BSA at 4° C. overnight. The next day 10 μl of HaloLink beads were mixed with the protein-peptide mixture, incubated at RT for 1 hour, washed with 4× in PBS-T and eluted into SDS sample buffer. […] HaloLink beads without incubation with fusion proteins were used as negative controls.

ERG:DNA-PKcs interaction = molecular target: T10, ERG:DNA-PKcs interaction (Homo sapiens, UniProt P11308)
T10 sequence (P11308 1-479): T5 sequence (P11308 1-479)
Description: as §4

ERG in VCaP cells [10] = molecular target: T7, ERG in VCaP cells
Description: The following primary and secondary antibodies were used: mouse-anti-ERG (Biocare) and goat-anti-mouse-Cy5 (Jackson Immuno-Research) respectively. […] Emission from individual fluorophores was detected sequentially. Image processing was performed in Imaris and colocalization analysis was done in Imaris (Bitplane). Colocalization was calculated as the percentage of FITC spots that colocalized with ERG spots in the nucleus.

ERG [11] = molecular target: T5, ERG; assay: ERG:peptide binding by biolayer interferometry (OctetRED); details: OctetRED biolayer interferometry, values in text
Description: as §3

GRPR = GRPR (Homo sapiens, UniProt P30550); details: Peptides 13, 775 (1992); cited from earlier work
Sequence of GRPR (P30550 whole entry, species assumed): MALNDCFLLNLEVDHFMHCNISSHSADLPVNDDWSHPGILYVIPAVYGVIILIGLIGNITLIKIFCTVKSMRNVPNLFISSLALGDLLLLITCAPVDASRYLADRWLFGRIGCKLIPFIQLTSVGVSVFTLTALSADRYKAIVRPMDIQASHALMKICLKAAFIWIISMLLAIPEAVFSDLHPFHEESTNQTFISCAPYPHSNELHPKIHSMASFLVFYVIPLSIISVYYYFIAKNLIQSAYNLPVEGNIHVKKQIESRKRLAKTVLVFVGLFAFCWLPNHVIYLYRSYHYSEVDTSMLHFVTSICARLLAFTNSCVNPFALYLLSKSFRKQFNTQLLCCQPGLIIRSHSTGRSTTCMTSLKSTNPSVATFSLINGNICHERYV

T6 sequence (P11308 whole entry Y373A): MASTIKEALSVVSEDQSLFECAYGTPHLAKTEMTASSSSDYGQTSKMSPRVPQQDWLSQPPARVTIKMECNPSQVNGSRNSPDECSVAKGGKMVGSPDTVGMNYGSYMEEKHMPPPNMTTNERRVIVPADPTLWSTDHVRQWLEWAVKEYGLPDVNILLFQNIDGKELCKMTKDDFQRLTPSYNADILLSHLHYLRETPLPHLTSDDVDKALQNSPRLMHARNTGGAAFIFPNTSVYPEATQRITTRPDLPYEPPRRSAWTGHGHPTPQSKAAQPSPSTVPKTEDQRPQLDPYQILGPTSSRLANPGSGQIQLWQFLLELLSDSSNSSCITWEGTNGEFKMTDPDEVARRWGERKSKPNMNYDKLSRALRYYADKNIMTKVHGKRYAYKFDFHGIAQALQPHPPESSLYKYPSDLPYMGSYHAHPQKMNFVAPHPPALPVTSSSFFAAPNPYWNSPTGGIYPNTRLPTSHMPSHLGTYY
Sequence of PSMA (Q04609 whole entry): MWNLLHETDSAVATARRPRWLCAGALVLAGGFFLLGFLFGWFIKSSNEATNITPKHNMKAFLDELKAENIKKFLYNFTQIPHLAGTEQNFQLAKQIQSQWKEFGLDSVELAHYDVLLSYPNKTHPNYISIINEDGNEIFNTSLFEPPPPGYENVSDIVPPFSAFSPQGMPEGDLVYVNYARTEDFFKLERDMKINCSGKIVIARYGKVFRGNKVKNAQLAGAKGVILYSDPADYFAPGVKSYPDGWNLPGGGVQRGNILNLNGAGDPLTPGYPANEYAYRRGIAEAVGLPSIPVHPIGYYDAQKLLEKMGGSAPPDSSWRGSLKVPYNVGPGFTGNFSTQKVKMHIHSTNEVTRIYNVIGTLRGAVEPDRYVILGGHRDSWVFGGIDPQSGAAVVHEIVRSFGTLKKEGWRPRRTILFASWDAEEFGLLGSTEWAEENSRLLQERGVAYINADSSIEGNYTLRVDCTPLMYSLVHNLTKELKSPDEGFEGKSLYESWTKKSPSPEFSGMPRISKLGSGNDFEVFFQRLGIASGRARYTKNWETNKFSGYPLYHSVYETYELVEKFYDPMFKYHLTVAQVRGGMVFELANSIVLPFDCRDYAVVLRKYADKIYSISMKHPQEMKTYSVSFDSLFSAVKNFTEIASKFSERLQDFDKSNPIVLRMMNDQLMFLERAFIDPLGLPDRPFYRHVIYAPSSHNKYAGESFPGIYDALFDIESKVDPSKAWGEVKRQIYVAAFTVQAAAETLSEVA

In the case of O=C(O)CC[C@H](NC(=O)N[C@@H](CCCCN(Cc1ccc(Br)cc1)C(=O)CCOCCOCCOCCOCCOCCOCCOCCOCCOCCOCCOCCOCCNC(=O)CCCC[C@@H]1SC[C@@H]2NC(=O)N[C@@H]21)C(=O)O)C(=O)O [Analogue 3], the IC50 (PSMA) is listed as 1.3 nM.

With CC(C)C[C@H](NC(=O)[C@H](Cc1ccc(O)cc1)NC(=O)[C@@H]1CCCN1C(=O)[C@@H]1CCCN1C(=O)[C@H](CC(C)C)NC(=O)CCCC[C@@H]1SC[C@@H]2NC(=O)N[C@@H]21)C(=O)N[C@@H](Cc1ccccc1)C(=O)N[C@H](C(=O)O)[C@@H](C)O [Biotin-EIP1, Biotin-LPPYLFT] (Biotin-LPPYLFT-OH) the “pull-down of wtERG” value (wild-type ERG (wtERG)) was “pulled down”, the “amount of cell lysate for ERG pull-down” value (VCaP ERG) was 0.25 mg/mL and the “amount of cell lysate for ERG pull-down” value (HUVEC ERG) was 8 mg/mL.

In the case of CCNC(=O)[C@@H]1CCCN1C(=O)[C@H](CCCNC(=N)N)NC(=O)[C@H](CC(C)C)NC(=O)[C@@H](CC(C)C)NC(=O)[C@H](Cc1ccc(O)cc1)NC(=O)[C@H](CO)NC(=O)[C@H](Cc1c[nH]c2ccccc12)NC(=O)[C@H](Cc1c[nH]cn1)NC(=O)[C@@H]1CCC(=O)N1 [Leuprolide, pyro-EHWSY1LRP-NHEt], the half life [1] is given as 3 h.

In the case of CC(C)C[C@H](NC(=O)CCCC[C@@H]1SC[C@@H]2NC(=O)N[C@@H]21)C(=O)N[C@@H](CO)C(=O)N[C@@H](Cc1ccccc1)C(=O)NCC(=O)N[C@@H](CO)C(=O)N[C@@H](CC(C)C)C(=O)N1CCC[C@H]1C(=O)O [biotin-EIP2, Biotin-LSFGSLP] (Biotin-LSFGSLP-OH), the “spectral counts for the ERG peptide NTGGAAFIFPNTSVYPEATQR” value [2] is reported as 111 spectral counts, the “interaction with ERG” value (ERG [3]) is reported as “interact strongly” and the “interaction with ERG (Y373A)” value (ERG_Y373A [4]) is reported as “No interaction was detected”.

With CC(C)C[C@H](NC(=O)[C@H](CCc1ccccc1)NC(=O)CN1CCOCC1)C(=O)N[C@@H](Cc1ccccc1)C(=O)N[C@@H](CC(C)C)C(=O)[C@@]1(C)CO1 [carfilzomib] the “effect on RI-EIP1-induced degradation of ERG protein” value (ERG in VCaP cells [5]) was “completely inhibited”.

With “H-PYLFT-NH2 [Compound 5PT-N, NH2-PYLFT-NH2]” the “binding to ERG” value (ERG [6]) was “most potent truncated peptides”.

For LPPYLFT [EIP1, LPPYLFT], the Kd (ERG_Y373A [7]) was over 100000 nM, the “disruption of ERG:EBS DNA interaction” value (ERG:EBS DNA interaction) was “effectively disrupted” and the “entry into VCaP cells” value (VCaP cells) was “did not penetrate the cell membrane”. For the same compound, the “DNA damage caused by oncogenic ERG (EWS-ERG fusion)” value [8] was “reduce DNA damage”, the invasion potential [8] was “reduced” and the “DNA damage in cells containing the EWS-FLI1 fusion” value [9] was “no effect”. The “disruption of direct ERG:AR interaction” value (ERG:AR interaction) was “disrupted”, the “disruption of direct ERG:DNA-PKcs interaction” value (ERG:DNA-PKcs interaction) was “disrupted” and the “extent of green-red colocalization in the nucleus” value (ERG in VCaP cells [10]) was 78±5%. The Kd (ERG [11]) was 600 nM.

In the case of fQWAVaHLM-OMe, the “affinity as GRPR antagonist” value (GRPR) is listed as “good affinity”.
